According to article PMC12543283, “TastepepAI: An artificial intelligence platform for taste peptide de novo design” (PLOS Computational Biology, 2025):
Ends that are not written are not given here.

Assays:
[1] = Electronic tongue analysis (Taste-Sensing System SA 402B); parameters: unit not given here; conditions: reference solution 30 mM KCl + 0.3 mM tartaric acid as baseline, first measurement excluded; for Umami: sensor AAE; for Umami / Bitter / Sweet: detection threshold 0, room temperature; for Umami / Bitter / Sour / Salty: four replicates; for Sour: detection threshold -13, room temperature; for Salty: detection threshold -6, room temperature; for Sweet: measured five times
Outline: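 Samples were tested at 0.1 and 1.0 mg/mL on an SA 402B e-tongue fitted with sourness, saltiness, bitterness, sweetness and umami sensors, with 30 mM KCl/0.3 mM tartaric acid as reference and baseline. Thresholds were −13 for sour, −6 for salty and 0 for the rest. Runs at room temperature: four replicates, five for sweetness, first reading discarded.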

[2] = tested on: human pancreatic ductal epithelial cells (HPNE)
[3] = tested on: human bronchial epithelial cells (BEAS-2B)
[4] = tested on: human embryonic kidney cells (HEK293T)
Description: The cytotoxicity of 73 synthetic peptides was evaluated using four human cell lines: human pancreatic ductal epithelial cells (HPNE), human embryonic kidney cells (HEK293T), human umbilical vein endothelial cells (HUVEC), and human bronchial epithelial cells (BEAS-2B). When cell density reached 70% confluence, the complete culture medium was replaced with serum-free maintenance medium, and peptides were added at a final concentration of 100 μM for 36 h. Control groups received only serum-free maintenance medium without peptides. Cell proliferation was assessed using the CCK-8 assay kit (Solarbio, CA1210) according to the manufacturer’s instructions.

[5] = tested on: human umbilical vein endothelial cells (HUVEC)

Row | Substance | Umami ([1]; peptide 1 mg/mL) | Bitter ([1]; sensor C00, peptide 1 mg/mL) | Sour ([1]; sensor CA0, peptide 0.1 mg/mL) | Sour ([1]; sensor CA0, peptide 1 mg/mL) | Salty ([1]; sensor CT0, peptide 1 mg/mL) | Sweet ([1]; sensor GL1, peptide 0.1 mg/mL) | Sweet ([1]; sensor GL1, peptide 1 mg/mL) | Average cell viability, HPNE [2] | Cell viability, HPNE, Data1 [2] | Cell viability, HPNE, Data2 [2] | Cell viability, HPNE, Data3 [2] | Average cell viability, BEAS-2B [3] | Cell viability, BEAS-2B, Data1 [3] | Cell viability, BEAS-2B, Data2 [3] | Cell viability, BEAS-2B, Data3 [3] | Average cell viability, HEK293T [4] | Cell viability, HEK293T, Data1 [4] | Cell viability, HEK293T, Data2 [4] | Cell viability, HEK293T, Data3 [4] | Average cell viability, HUVEC [5] | further results
1 | KNDESVD [TaPep48] | -4.97 | 4.06 | -2.20 | 12.29 | 9.10 | 5.24 | -3.88 | 102.66 | 87.85 | 109.32 | 110.82 | 98.21 | 105.18 | 91.23 | 98.21 | 103.91 | 103.15 | 102.59 | 105.99 | 107.58 | Umami ([1]; peptide 0.1 mg/mL): 1.19; Bitter ([1]; sensor C00, peptide 0.1 mg/mL): 7.92; Salty ([1]; sensor CT0, peptide 0.1 mg/mL): -19.00; Cell viability, HUVEC, Data1 [5]: 110.24; Cell viability, HUVEC, Data2 [5]: 102.34; Cell viability, HUVEC, Data3 [5]: 110.16
2 | KTYSA [TaPep49] | -3.34 | 2.53 | -7.10 | 8.30 | 11.00 | 7.69 | -3.73 | 94.58 | 82.96 | 86.76 | 114.01 | 100.60 | 99.20 | 96.41 | 106.18 | 96.97 | 99.94 | 94.54 | 96.44 | 102.29 | Umami ([1]; peptide 0.1 mg/mL): 0.96; Bitter ([1]; sensor C00, peptide 0.1 mg/mL): 7.26; Salty ([1]; sensor CT0, peptide 0.1 mg/mL): -15.59; Cell viability, HUVEC, Data1 [5]: 99.15; Cell viability, HUVEC, Data2 [5]: 103.94; Cell viability, HUVEC, Data3 [5]: 103.78
3 | LGDDLVK [TaPep19] | -4.34 | 3.19 | -4.23 | 10.91 | 8.70 | 6.20 | -4.08 | 100.07 | 102.93 | 114.51 | 82.76 | 111.70 | 111.27 | 110.77 | 113.06 | 106.88 | 110.63 | 106.37 | 103.63 | 102.69 | Umami ([1]; peptide 0.1 mg/mL): 2.00; Bitter ([1]; sensor C00, peptide 0.1 mg/mL): 7.19; Salty ([1]; sensor CT0, peptide 0.1 mg/mL): -21.50; Cell viability, HUVEC, Data1 [5]: 92.52; Cell viability, HUVEC, Data2 [5]: 103.78; Cell viability, HUVEC, Data3 [5]: 111.76
4 | LGGDL [TaPep58] | -4.23 | 3.43 | -4.24 | 10.37 | 10.46 | 7.50 | -6.69 | 94.58 | 94.94 | 87.85 | 100.93 | 99.93 | 103.89 | 90.43 | 105.48 | 101.42 | 99.84 | 107.22 | 97.19 | 99.81 | Umami ([1]; peptide 0.1 mg/mL): 2.07; Bitter ([1]; sensor C00, peptide 0.1 mg/mL): 7.49; Salty ([1]; sensor CT0, peptide 0.1 mg/mL): -21.68; Cell viability, HUVEC, Data1 [5]: 89.41; Cell viability, HUVEC, Data2 [5]: 103.78; Cell viability, HUVEC, Data3 [5]: 106.25
5 | LNDVE [TaPep66] | -3.37 | 4.03 | -3.77 | 8.49 | 4.47 | 6.93 | -3.10 | 110.62 | 96.14 | 118.00 | 117.70 | 98.04 | 103.39 | 89.73 | 101.00 | 101.96 | 96.81 | 102.97 | 106.09 | 96.70 | Umami ([1]; peptide 0.1 mg/mL): 1.83; Bitter ([1]; sensor C00, peptide 0.1 mg/mL): 7.14; Salty ([1]; sensor CT0, peptide 0.1 mg/mL): -21.50; Cell viability, HUVEC, Data1 [5]: 88.85; Cell viability, HUVEC, Data2 [5]: 100.59; Cell viability, HUVEC, Data3 [5]: 100.67
6 | LNGPQ [TaPep63] | -6.21 | 4.12 | -2.72 | 15.39 | 10.16 | 5.62 | -5.33 | 97.14 | 82.16 | 94.94 | 114.31 | 103.52 | 114.46 | 93.02 | 103.09 | 99.12 | 94.35 | 104.86 | 98.14 | 95.61 | Umami ([1]; peptide 0.1 mg/mL): 1.41; Bitter ([1]; sensor C00, peptide 0.1 mg/mL): 7.27; Salty ([1]; sensor CT0, peptide 0.1 mg/mL): -20.42; Cell viability, HUVEC, Data1 [5]: 91.41; Cell viability, HUVEC, Data2 [5]: 96.35; Cell viability, HUVEC, Data3 [5]: 99.07
7 | LQDVVE [TaPep24] | -3.57 | 3.73 | -4.17 | 9.09 | 4.83 | 6.22 | -4.08 | 93.71 | 94.37 | 92.98 | 93.78 | 113.59 | 103.99 | 117.45 | 119.34 | 99.02 | 102.40 | 97.85 | 96.81 | 103.54 | Cell viability, HUVEC, Data1 [5]: 91.48; Cell viability, HUVEC, Data2 [5]: 106.25; Cell viability, HUVEC, Data3 [5]: 112.88
8 | LQPDAGK [TaPep6] | -5.07 | 2.72 | -4.43 | 10.67 | 12.20 | 8.22 | -5.48 | 97.97 | 95.64 | 99.55 | 98.73 | 102.76 | 91.82 | 107.88 | 108.57 | 98.83 | 101.83 | 97.29 | 97.38 | 102.10 | Umami ([1]; peptide 0.1 mg/mL): 1.99; Bitter ([1]; sensor C00, peptide 0.1 mg/mL): 7.90; Salty ([1]; sensor CT0, peptide 0.1 mg/mL): -19.24; Cell viability, HUVEC, Data1 [5]: 91.96; Cell viability, HUVEC, Data2 [5]: 115.19; Cell viability, HUVEC, Data3 [5]: 99.15
9 | LQPSLEH [TaPep59] | -6.02 | 1.90 | -3.89 | 15.44 | 15.85 | 6.34 | -7.32 | 92.71 | 105.62 | 84.46 | 88.05 | 100.60 | 96.61 | 109.87 | 95.31 | 98.64 | 100.88 | 99.94 | 95.11 | 104.79 | Umami ([1]; peptide 0.1 mg/mL): 1.85; Bitter ([1]; sensor C00, peptide 0.1 mg/mL): 7.83; Salty ([1]; sensor CT0, peptide 0.1 mg/mL): -19.53; Cell viability, HUVEC, Data1 [5]: 97.39; Cell viability, HUVEC, Data2 [5]: 106.49; Cell viability, HUVEC, Data3 [5]: 110.48
